In ChEMBL document CHEMBL1127653, “Synthesis and anticholinergic activity of the four stereoisomers of 4-(dimethylamino)-2-phenyl-2-(2-pyridyl)pentanamide” (J Med Chem, 1994):

Species on record: Cavia porcellus
Experiment: Inhibitory effect on acetylcholine-Induced contraction of Guinea pig iIeum
Type: functional

SMILES	IC50 [µM]	IC50 (Cavia porcellus) [µM]
C[C@H](C[C@@](C(N)=O)(c1ccccc1)c1ccccn1)N(C)C (stereo in doubt; 11 (2S,4S))	31	
CN(C)CCC(C(N)=O)(c1ccccc1)c1ccccn1 (configuration not stated)		8.1
C[C@H](C[C@@](C(N)=O)(c1ccccc1)c1ccccn1)N(C)C (stereo in doubt; 13 (2S,4R))	0.13	
CC(CC(C(N)=O)(c1ccccc1)c1ccccn1)N(C)C (racemic; form 2) [VAMICAMIDE]	0.57	
CC(CC(C(N)=O)(c1ccccc1)c1ccccn1)N(C)C (racemic; form 1) [VAMICAMIDE]	1.5	
C[C@H](C[C@@](C(N)=O)(c1ccccc1)c1ccccn1)N(C)C (stereo in doubt; 10 (2R,4R))	0.4	
C[C@H](C[C@@](C(N)=O)(c1ccccc1)c1ccccn1)N(C)C (stereo in doubt; 12 (2R,4S))	170	
